Patent publication US12594280B2, “Antiviral compositions for treating the flu” (UNIVERSITE CLAUDE BERNARD LYON 1, priority 2015, dated 2026)
Read-outs that look alike come from different tables or passages of the source.

Columns and labels:
H1N1 pdm09 virus [1] = experiment: in vivo antiviral effect, treatment started before H1N1 infection of mice; settings: B57BL/6 mice, gavage on Day-1, day of and 3 days following infection
Protocol: B57BL/6 mice (age 7-8 weeks) are treated by gavage before (Day-1), the day of, and 3 days following infection with H1N1 pdm09 virus, according to the protocol shown diagrammatically in FIG. 5A.
The following parameters are evaluated over time: • FIG. 5B: Survival rate over time, up to 14 days post-infection; • FIG. 5C: Weight loss and gain observed over time; • FIG. 5D: Viral titer in the lungs of infected and treated mice.

[2] = system: H1N1 pdm09 virus (A/Pdm/09); format: cell-based, human influenza A virus
[3] = in vivo evaluation in mice of toxicity (change in weight); settings: gavage; oseltamivir 10 mg/kg/day, etilefrine 3 mg/kg/day, diltiazem 90 mg/kg/day
Protocol: FIG. 4. In vivo evaluation of the toxicity of the following molecules: oseltamivir, monensin, diltiazem, etilefrine and isoxicam. The “Saline” control indicates the weight of mice treated with PBS. The curve represents the change in weight (weight gain/loss expressed as a percentage) of the various groups of mice over time.
The “Saline” control denotes untreated mice, having been treated with PBS.
The following daily amounts were administered by gavage to the mice: • oseltamivir: 10 mg/kg/day • etilefrine: 3 mg/kg/day • diltiazem: 90 mg/kg/day

H1N1 pdm09 virus [4] = format: cell-based, human influenza A virus
H1N1 pdm09 virus [5] = experiment: in vivo antiviral effect, treatment 24 hours after H1N1 infection of mice; settings: B57BL/6 mice, gavage, treatment 24 hours after infection, up to 14 days post-infection
Protocol: B57BL/6 mice (age 7-8 weeks) are treated by gavage after infection with H1N1 pdm09 virus, according to the protocol shown diagrammatically in FIG. 6A. Survival rate over time is measured for infected mice receiving no treatment (FIG. 6B); treated with oseltamivir (FIG. 6C); and treated with diltiazem (FIG. 6D). The survival rate of mice treated with oseltamivir, and of those treated with diltiazem, is 100%.

influenza H1N1 pdm09 = format: cell-based, influenza virus
[6] = system: A/Moscow/10/99 (H3N2) strain; format: cell-based, human influenza A virus; settings: A549 cells, FIG. 2
H1N1 pdm09 = format: cell-based, human influenza A virus

COc1ccc([C@@H]2Sc3ccccc3N(CCN(C)C)C(=O)[C@@H]2OC(C)=O)cc1 [diltiazem]
survival at 14 days (H1N1 pdm09 virus [1]): 90% | normalized virus production [2]: significant decrease | virus production, comparison of the conditions ([2]; diltiazem alone at 9 nM, FIG. 3B): best results | toxicity (change in weight of the mice) [3]: clearly nontoxic | decrease of relative viral titer / virus production relative to the control value (H1N1 pdm09 virus [4]): about 20% | survival rate (H1N1 pdm09 virus [5]): 100% | antiviral effect on virus production (influenza H1N1 pdm09; diltiazem 9 μM): no significant antiviral affect | antiviral effect on virus production (influenza H1N1 pdm09; diltiazem 90 μM, compared with oseltamivir 1 μM): comparable antiviral effect

CCNCC(O)c1cccc(O)c1 (stereo not drawn) [etilefrine]
survival at 14 days (H1N1 pdm09 virus [1]): 70% | normalized virus production [2]: significant decrease | toxicity (change in weight of the mice) [3]: clearly nontoxic | antiviral effects [6]: significant from the lowest concentration tested | concentration that completely inhibits virus production [6]: 0.018 µM

CC(=O)O[C@H]1C[C@H](O[C@H]2[C@@H](O)C[C@H](O[C@H]3[C@@H](O)C[C@H](O[C@H]4CC[C@@]5(C)[C@H](CC[C@@H]6[C@@H]5C[C@@H](O)[C@]5(C)[C@@H](C7=CC(=O)OC7)CC[C@]65O)C4)O[C@@H]3C)O[C@@H]2C)O[C@H](C)[C@H]1O[C@@H]1O[C@H](CO)[C@@H](O)[C@H](O)[C@H]1O [lanatoside C]
normalized virus production [2]: did not make it possible to confirm the antiviral activity

CC[C@@]1([C@@H]2O[C@@H]([C@H]3O[C@@](O)(CO)[C@H](C)C[C@@H]3C)C[C@@H]2C)CC[C@H]([C@]2(C)CC[C@]3(C[C@H](O)[C@@H](C)[C@@H]([C@@H](C)[C@@H](OC)[C@H](C)C(=O)O)O3)O2)O1 [monensin]
normalized virus production [2]: significant decrease | decrease of virus production relative to the control value (H1N1 pdm09 virus [4]): about 72%

CCOC(=O)C1=C[C@@H](OC(CC)CC)[C@H](NC(C)=O)[C@@H](N)C1 [oseltamivir]
survival at 14 days (H1N1 pdm09 virus [1]): 60% | virus production decreased to ([2]; oseltamivir alone, FIGS. 3A and 3B): about 40% | Dose Oseltamivir (H1N1 pdm09; Fa = 0.90 (90%)): 7.50797 µM | Dose Oseltamivir (H1N1 pdm09; Fa = 0.95 (95%)): 62.435 µM | Dose Oseltamivir (H1N1 pdm09; Fa = 0.97 (97%)): 281.813 µM | toxicity (change in weight of the mice) [3]: highest cell toxicity | virus production decreased to a value relative to the control value (H1N1 pdm09 virus [4]): about 55% | survival rate (H1N1 pdm09 virus [5]): 100% | decrease of virus production relative to the control value (influenza H1N1 pdm09): up to 3 log 10 | antiviral effect on virus production (influenza H1N1 pdm09; oseltamivir 0.1 μM): no significant antiviral affect

NC(=O)c1ncn([C@@H]2O[C@H](CO)[C@@H](O)[C@H]2O)n1 [ribavirin]
normalized virus production [2]: significant decrease
